Earlier results in patent US20060173046A1, “Hydroxypyridine cgrp receptor antagonists” (priority 2003, published 2006).
Ends that are not written are not given here.

Tests used:
marmoset = details: electrical stimulation of the trigeminal ganglion
rat = details: trigeminal ganglion stimulation
rats = details: electrical stimulation of the dura mater, prior administration

| Molecule | increase in facial blood flow (marmoset) | increased facial blood flow (rat) | increase of the diameter of the middle meningeal artery (rats) |
| --- | --- | --- | --- |
| NCCCC[C@H](NC(=O)[C@@H](Cc1cc(Br)c(O)c(Br)c1)NC(=O)N1CCC(N2Cc3ccccc3NC2=O)CC1)C(=O)N1CCN(c2ccncc2)CC1 [BIBN4096BS] | blocked |  |  |
| CGRP(8-37): a peptide CGRP antagonist (VTHRLAGLLSRSGGVVKNNFVPTNVGSKAF; ends and bridges not checked; UniProt P06881 90-119, looked up, fragment) |  | inhibited | blocked |
